Key:
Conditions in all cases: incubation time: 72 h
BT-474 = assay: normalised viability (% of control), CellTiter-Blue; higher = more viable cells (about 100 = DMSO control)
Outline: (§1)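 384-well plates were pre-loaded with compound in 5 µl medium before 20 µl of breast cancer cell suspension was seeded. Following 72 h incubation, 2.5 µl CellTiter-Blue reagent was added for 2 h at 37 °C. Fluorescence was read at 560/590 nm and plates were normalised to vehicle (100) and a positive kill control (0), checked by Z'-factor. Normalised viability is reported at a single listed concentration of the series.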

BT-549 = assay: as above
Outline: as §1

CAL-120 = assay: as above
Outline: as §1

CAL-148 = assay: as above
Outline: as §1

CAL-51 = assay: as above
Outline: as §1

CAL-85-1 = assay: as above
Outline: as §1

DU-4475 = assay: as above
Outline: as §1

HCC1143 [1] = assay: as above
Outline: as §1

HCC1599 = assay: as above
Outline: as §1

HCC1937 = assay: as above
Outline: as §1

HDQ-P1 = assay: as above
Outline: as §1

Hs578T = assay: as above
Outline: as §1

MDA-MB-231 [2] = assay: as above
Outline: as §1

MDA-MB-436 = assay: as above
Outline: as §1

MDA-MB-453 = assay: as above
Outline: as §1

MDA-MB-468 [3] = assay: as above
Outline: as §1

MFM-223 = assay: as above
Outline: as §1

SK-BR-3 [4] = assay: as above
Outline: as §1

HCC1143 [5] = assay: drug sensitivity score (DSS), CellTiter-Blue viability (DSS (AUC-based score)); higher = stronger viability inhibition; extreme values may be limits of the assay
Outline: (§2)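 A 72 h incubation followed seeding of breast cancer cell lines (20 µl suspension) into 384-well plates holding compound in a 5- or 9-concentration series. CellTiter-Blue, 2.5 µl per well, was incubated 2 h at 37 °C, and fluorescence was measured at 560/590 nm. Normalisation on every plate used 0.1 % DMSO and a positive kill control. From the fitted dose-response curve, the area under the curve was taken as the drug sensitivity score.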

MDA-MB-468 [6] = assay: as above
Outline: as §2

SK-BR-3 [7] = assay: as above
Outline: as §2

MDA-MB-231 [8] = assay: drug sensitivity score (DSS), CellTox Green (DSS (AUC-based score)); higher = stronger drug effect (viability inhibition or cytotoxicity); extreme values may be limits of the assay
Outline: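 Breast cancer cell lines, seeded as 20 µl suspension, were incubated 72 h with compound in 384-well plates at 5 concentrations in 10-fold steps over a 10,000-fold range set for each compound. Fluorescence from CellTox Green was read at 485/520 nm before CellTiter-Glo luminescence, which was read after 10 min at room temperature. Every plate was normalised to 0.1 % DMSO and a positive kill control, and the drug sensitivity score was taken from the area under the fitted dose-response curve.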

O=C(Nc1cccnc1)N1CCC(Cc2cccc(Oc3ccc(C(F)(F)F)cn3)c2)CC1 [PF-3845]
normalised viability [%]
Conditions	3 nM	10 nM	30 nM	100 nM	1000 nM	10000 nM
BT-474	–	128	–	–	111	40.5
BT-549	–	93.3	–	–	86.9	48.6
CAL-51	109	–	98.1	103	–	–
CAL-85-1	89.6	–	89.5	87.1	–	–
CAL-120	–	99.1	–	–	105	120
CAL-148	91	–	85.3	97.9	–	–
DU-4475	90.2	–	90.7	87.6	–	–
HCC1143 [1]	–	84.3	–	–	88.5	89.5
HCC1599	–	95.1	–	–	114	76.6
HCC1937	–	122	–	–	108	97.2
HDQ-P1	129	–	115	113	–	–
Hs578T	–	116	–	–	94.3	79.1
MDA-MB-231 [2]	–	106	–	–	115	127
MDA-MB-436	–	98.1	–	–	116	101
MDA-MB-453	112	–	101	101	–	–
MDA-MB-468 [3]	–	106	–	–	117	62.8
MFM-223	–	91.8	–	–	95.5	74.1
SK-BR-3 [4]	–	111	–	–	106	116

Conditions	drug sensitivity score
HCC1143 [5]	0
MDA-MB-231 [8]	0
MDA-MB-468 [6]	0.694
SK-BR-3 [7]	0

Cc1[nH]c2ccccc2c1CCNCc1ccc(/C=C/C(=O)NO)cc1 [Panobinostat]
normalised viability [%]
Conditions	0.3 nM	1 nM	3 nM	10 nM	100 nM	1000 nM
BT-474	–	118	–	–	4.44	9.36
BT-549	–	97.7	–	–	68.7	14.7
CAL-51	113	–	111	97.2	–	–
CAL-85-1	98	–	88.3	81.4	–	–
CAL-120	–	109	–	–	9.65	3.59
CAL-148	96.5	–	104	59.4	–	–
DU-4475	112	–	92.4	81.6	–	–
HCC1143 [1]	–	102	–	–	20.7	12.2
HCC1599	–	99.7	–	–	23	16.3
HCC1937	–	110	–	–	26.2	15.1
HDQ-P1	120	–	115	93.1	–	–
Hs578T	–	152	–	–	13.8	5.54
MDA-MB-231 [2]	–	120	–	–	13.3	7.26
MDA-MB-436	–	110	–	–	59.1	17
MDA-MB-453	121	–	64.3	22.7	–	–
MDA-MB-468 [3]	–	108	–	–	52.2	16.7
MFM-223	–	102	–	–	20.2	14.8
SK-BR-3 [4]	–	96.9	–	–	5.41	3.54

Conditions	drug sensitivity score
HCC1143 [5]	16.3
MDA-MB-231 [8]	19.9
MDA-MB-468 [6]	11.3
SK-BR-3 [7]	23

COCC1(CO)C(=O)C2CCN1CC2 (configuration not stated) [Prima-1 Met]
normalised viability [%]
Conditions	3 nM	10 nM	30 nM	100 nM	1000 nM	10000 nM
BT-474	–	109	–	–	98.5	40.4
BT-549	–	105	–	–	87.8	109
CAL-51	93.7	–	93.2	96.4	–	–
CAL-85-1	91.3	–	78.1	103	–	–
CAL-120	–	85	–	–	99.8	102
CAL-148	93.3	–	93	89.2	–	–
DU-4475	109	–	88.4	122	–	–
HCC1143 [1]	–	82.3	–	–	73.2	75.2
HCC1599	–	93.4	–	–	120	106
HCC1937	–	97.8	–	–	73.8	75.4
HDQ-P1	91.3	–	81.2	74.4	–	–
Hs578T	–	110	–	–	106	88.9
MDA-MB-231 [2]	–	95.4	–	–	92.7	88.7
MDA-MB-436	–	86.9	–	–	81.9	104
MDA-MB-453	95.4	–	107	98	–	–
MDA-MB-468 [3]	–	104	–	–	115	104
MFM-223	–	103	–	–	91.3	111
SK-BR-3 [4]	–	96.1	–	–	101	90.8

Conditions	drug sensitivity score
HCC1143 [5]	0
MDA-MB-231 [8]	0
MDA-MB-468 [6]	0
SK-BR-3 [7]	0

CNC(=O)c1cc(Oc2ccc(NC(=O)Nc3ccc(Cl)c(C(F)(F)F)c3)c(F)c2)ccn1 [Regorafenib]
normalised viability [%]
Conditions	3 nM	10 nM	30 nM	100 nM	1000 nM	10000 nM
BT-474	–	94.5	–	–	103	38.8
BT-549	–	98.8	–	–	102	37.4
CAL-51	106	–	106	104	–	–
CAL-85-1	84.7	–	89.1	88	–	–
CAL-120	–	89.4	–	–	102	46
CAL-148	88	–	90.2	95.3	–	–
DU-4475	114	–	100	120	–	–
HCC1143 [1]	–	76.8	–	–	77.8	75.4
HCC1599	–	100	–	–	107	56.3
HCC1937	–	94.9	–	–	90.3	35.1
HDQ-P1	101	–	109	100	–	–
Hs578T	–	96.4	–	–	90.7	38.3
MDA-MB-231 [2]	–	90.5	–	–	68.1	31.7
MDA-MB-436	–	115	–	–	102	65.2
MDA-MB-453	102	–	109	101	–	–
MDA-MB-468 [3]	–	111	–	–	116	34.5
MFM-223	–	107	–	–	57.1	31.2
SK-BR-3 [4]	–	93.5	–	–	95.8	72.2

Conditions	drug sensitivity score
HCC1143 [5]	9.31
MDA-MB-231 [8]	0
MDA-MB-468 [6]	1.71
SK-BR-3 [7]	0

Source: the supplement of paper PMC4862054
